How the values were obtained:
[1] = biological target: Muscarinic acetylcholine receptor; test: Compound was evaluated for the inhibition of binding of [3H]QNB (quinuclidinyl benzilate) to striatal Muscarinic acetylcholine receptor; type: protein assay
Rattus norvegicus = species: Rattus norvegicus; test: Antimuscarinic potency is measured as its ability to block ACh-induced contractions of the rat ileum.; type: functional; conditions: read-out: pA2 (converted)

Structure (SMILES)	IC50 [1] [nM]	Kb (Rattus norvegicus) [nM]
CCN(CC)C[C@H]1C[C@@H]2COC(c3ccccc3)(c3ccccc3)[C@@H]2O1.Cl	19000	–
CCN(CC)CC[C@@H]1COC(c2ccccc2)(c2ccccc2)[C@@H]1O	–	646
CCN(CC)CC[C@H]1COC(c2ccccc2)(c2ccccc2)[C@@H]1O	–	20000
CCN(CC)CCC1COC(c2ccccc2)(c2ccccc2)C1=O.Cl (stereo not given)	2000	447

— ChEMBL document CHEMBL1123919, “Molecular modification of anticholinergics as probes for muscarinic receptors. 3. Conformationally restricted analogues of benactyzine” (J Med Chem, 1987)
